Consider seven compounds from patent publication US20250122223A1, “HETEROCYCLIC COMPOUNDS AS UBIQUITIN SPECIFIC PROTEASE 7 INHIBITORS” (ALMAC DISCOVERY LIMITED, priority 2022, published 2025).

The target in this experiment is USP7 (Homo sapiens (Human), UniProt Q93009). Briefly: USP7 fluorescence polarisation (FP) assay with ubiquitin-Lys-TAMRA substrate. The format is biochemical. To be noted: biochemical inhibition. The method, then:
USP7 activity was monitored in a fluorescence polarisation (FP) homogeneous assay using the isopeptide ubiquitin-Lys-TAMRA substrate (U-558, Boston Biochem). Full-length USP7 was purchased from Boston Biochem (His6-USP7FL, E-519). Unless otherwise stated, all other reagents were purchased from Sigma-Aldrich. Enzymatic reactions were conducted in black flat-bottom low volume polystyrene 384-well plates (Grenier) and 15 μL total volume. USP7 (2.5 nM, 5 μL) was incubated in assay buffer (50 mM HEPES (pH 7.2), 150 mM NaCl, 5 mM DTT, 0.05% BSA (w/v), 0.05% CHAPS) in the presence or absence of inhibitor (5 μL). Inhibitors were stored as 10 mM DMSO stocks in an inert environment (low humidity, dark, low oxygen, room temperature) using a Storage Pod System and serial dilutions were prepared in buffer just prior to the assay (from 200 to 0.003 μM, 11 dp curve). Following incubation at room temperature for 30 min, the enzymatic reactions were initiated by dispensing the Ub substrate (50 nM, 5 μL). FP was measured every 5 min over a period of 1.5 h (within the linear range of the assay) using a Pherastar FSX (BMG Labtech) exciting at 530 nm and measuring the amount of parallel and perpendicular light at 575 nm. The FP signal was subsequently normalised to the control without compound present. Data were plotted and fitted, and the concentrations resulting in 50% inhibition (IC50) were calculated using the non-linear regression curve fitting model using GraphPad Prism.

The mark [1] stands for this setting: read-out: USP7 IC50 activity (Table 3a, classes).
The mark [2] stands for this setting: unit not given in Table 3b (Table 1 and key of Table 3a use μM), read-out: USP7 IC50 activity (Table 3b).

Read-outs that look alike come from different tables or passages of the source.

Chain of USP7 (Q93009 whole entry): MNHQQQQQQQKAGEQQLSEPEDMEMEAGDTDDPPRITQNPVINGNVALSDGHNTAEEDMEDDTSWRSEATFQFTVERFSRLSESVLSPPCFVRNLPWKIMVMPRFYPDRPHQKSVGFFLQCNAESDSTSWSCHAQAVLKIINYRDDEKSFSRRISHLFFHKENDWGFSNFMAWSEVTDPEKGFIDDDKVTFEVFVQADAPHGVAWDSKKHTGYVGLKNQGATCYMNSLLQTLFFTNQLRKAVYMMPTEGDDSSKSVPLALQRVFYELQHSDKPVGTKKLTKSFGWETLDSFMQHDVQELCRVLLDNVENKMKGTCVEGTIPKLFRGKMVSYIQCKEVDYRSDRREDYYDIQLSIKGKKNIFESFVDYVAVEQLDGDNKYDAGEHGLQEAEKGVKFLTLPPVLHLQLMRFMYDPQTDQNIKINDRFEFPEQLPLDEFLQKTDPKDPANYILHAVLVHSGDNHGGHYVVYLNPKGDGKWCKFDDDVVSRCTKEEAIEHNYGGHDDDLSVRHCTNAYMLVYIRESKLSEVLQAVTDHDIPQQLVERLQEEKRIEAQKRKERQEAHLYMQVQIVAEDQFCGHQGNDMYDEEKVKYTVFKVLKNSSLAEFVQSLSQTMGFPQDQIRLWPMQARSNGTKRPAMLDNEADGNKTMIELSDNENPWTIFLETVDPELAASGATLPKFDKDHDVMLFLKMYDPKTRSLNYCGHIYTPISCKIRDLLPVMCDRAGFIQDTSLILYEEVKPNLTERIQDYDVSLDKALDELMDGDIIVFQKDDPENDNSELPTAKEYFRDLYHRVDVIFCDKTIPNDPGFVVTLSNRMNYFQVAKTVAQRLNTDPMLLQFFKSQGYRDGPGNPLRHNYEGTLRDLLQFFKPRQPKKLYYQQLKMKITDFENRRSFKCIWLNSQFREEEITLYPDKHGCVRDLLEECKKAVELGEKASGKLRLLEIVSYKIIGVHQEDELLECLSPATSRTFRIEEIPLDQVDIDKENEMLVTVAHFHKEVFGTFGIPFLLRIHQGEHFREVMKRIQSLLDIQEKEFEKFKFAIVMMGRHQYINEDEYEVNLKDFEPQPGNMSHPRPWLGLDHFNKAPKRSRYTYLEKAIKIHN

Regarding `C[C@H]1CN[C@H](c2ccc(-n3c(Cl)cc4c(=O)n(CC5(O)CCN(C(=O)C6(C)CCC6)CC5)cnc43)cc2)CO1` [Example 102, 6-Chloro-3-((4-hydroxy-1-(1-methylcyclobutane-1-carbonyl)piperidin-4-yl)methyl)-7-(4-((3R,6S)-6-methylmorpholin-3-yl)phenyl)-3,7-dihydro-4H-pyrrolo[2,3-d]pyrimidin-4-one], the IC50 under setting [1] is less than 0.1 µM and the IC50 under setting [2] is 0.05 µM.
For `CC[C@H]1CN[C@H](c2ccc(-n3c(Cl)cc4c(=O)n(CC5(O)CCN(C(=O)[C@@]6(C)C[C@@H]6C)CC5)cnc43)cc2)CO1` [Example 95, 6-Chloro-3-((1-((1 S,2S)-1,2-dimethylcyclopropane-1-carbonyl)-4-hydroxypiperidin-4-yl)methyl)-7-(4-((3R,6S)-6-ethylmorpholin-3-yl)phenyl)-3,7-dihydro-4H-pyrrolo[2,3-d]pyrimidin-4-one] the same measures were 0.1 to 0.25 µM and 0.132 µM.
On to `C[C@H]1CN[C@H](c2ccc(-n3c(Cl)cc4c(=O)n(CC5(O)CCN(C(=O)c6cccc(F)c6F)CC5)cnc43)cc2)CO1` [Example 39, 6-Chloro-3-((1-(2,3-difluorobenzoyl)-4-hydroxypiperidin-4-yl)methyl)-7-(4-((3R,6S)-6-methylmorpholin-3-yl)phenyl)-3,7-dihydro-4H-pyrrolo[2,3-d]pyrimidin-4-one], for which the half-maximal inhibitory concentration (IC50) was 0.25 to 2 µM under setting [1] and 1.15 µM under setting [2].
For `Cc1cc(-n2c(Cl)cc3c(=O)n(CC4(O)CCN(C(=O)c5ccc(Cl)cc5)CC4)cnc32)ccc1[C@@H]1CO[C@@H](C)CN1` [Example 5, 6-Chloro-3-((1-(4-chlorobenzoyl)-4-hydroxypiperidin-4-yl)methyl)-7-(3-methyl-4-((3R,6S)-6-methylmorpholin-3-yl)phenyl)-3,7-dihydro-4H-pyrrolo[2,3-d]pyrimidin-4-one] the same measures were 0.1 to 0.25 µM and 0.225 µM.
`CC1(C(=O)N2CCC(O)(Cn3cnc4c(cc(Cl)n4-c4ccc(C5CNCCO5)cc4)c3=O)CC2)CC1` (centres unmarked) [Example 88, 6-Chloro-3-((4-hydroxy-1-(1-methylcyclopropane-1-carbonyl)piperidin-4-yl)methyl)-7-(4-(morpholin-2-yl)phenyl)-3,7-dihydro-4H-pyrrolo[2,3-d]pyrimidin-4-one]: the half-inhibitory concentration (IC50) runs as follows: under setting [1], 0.1 to 0.25 µM; under setting [2], 0.158 µM.
For `O=C(C[C@H](c1ccccc1)C(F)(F)F)N1CCC(O)(Cn2cnc3c(cc(Cl)n3-c3ccc([C@H]4COCCN4)c(C(F)(F)F)c3)c2=O)CC1` (mixture of isomers) [Example 87, 6-Chloro-3-((4-hydroxy-1-((R)-4,4,4-trifluoro-3-phenylbutanoyl)piperidin-4-yl)methyl)-7-(4-((S)-morpholin-3-yl)-3-(trifluoromethyl)phenyl)-3,7-dihydro-4H-pyrrolo[2,3-d]pyrimidin-4-one and 6-chloro-3-((4-hydroxy-1-((R)-4,4,4-trifluoro-3-phenylbutanoyl)piperidin-4-yl)methyl)-7-(4-((R)-morpholin-3-yl)-3-(trifluoromethyl)phenyl)-3,7-dihydro-4H-pyrrolo[2,3-d]pyrimidin-4-one (1:1)] the same measures were 0.25 to 2 µM and 0.292 µM.
Turning to `C[C@H]1CN[C@H](c2ccc(-n3c(Cl)cc4c(=O)n(CC5(O)CCN(C(=O)c6ccc(F)c(F)c6)CC5)cnc43)cc2)CO1` [Example 37, 6-Chloro-3-((1-(3,4-difluorobenzoyl)-4-hydroxypiperidin-4-yl)methyl)-7-(4-((3R,6S)-6-methylmorpholin-3-yl)phenyl)-3,7-dihydro-4H-pyrrolo[2,3-d]pyrimidin-4-one], the 50% inhibitory concentration (IC50) is, setting by setting: under setting [1], 0.25 to 2 µM; under setting [2], 0.254 µM.
